Test results: PubChem BioAssay (NCI)
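The compound was tested at five concentrations on cells cultured in 96-well plates, with a 48-hour exposure period. At the GI50, growth is halved. The concentration for full growth arrest is given as TGI.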

Tests used:
Test in all cases: NCI tumour cell line growth inhibition, 48 h
SNB-19 CNS = system: SNB-19 CNS
A498 renal = system: A498 renal
HOP-62 NSCLC = system: HOP-62 NSCLC
CAKI-1 renal = system: CAKI-1 renal
U251 CNS = system: U251 CNS
UACC-62 melanoma = system: UACC-62 melanoma
MOLT-4 leukemia = system: MOLT-4 leukemia
TK-10 renal = system: TK-10 renal
SK-MEL-2 melanoma = system: SK-MEL-2 melanoma
EKVX NSCLC = system: EKVX NSCLC
PC-3 prostate = system: PC-3 prostate
NCI/ADR-RES ovarian = system: NCI/ADR-RES ovarian
SK-OV-3 ovarian = system: SK-OV-3 ovarian
786-0 renal = system: 786-0 renal
COLO 205 colon = system: COLO 205 colon
OVCAR-3 ovarian = system: OVCAR-3 ovarian
SR leukemia = system: SR leukemia
HCT-15 colon = system: HCT-15 colon
KM12 colon = system: KM12 colon
RXF 393 renal = system: RXF 393 renal
OVCAR-8 ovarian = system: OVCAR-8 ovarian
MDA-MB-231 breast = system: MDA-MB-231 breast
K-562 leukemia = system: K-562 leukemia
CCRF-CEM leukemia = system: CCRF-CEM leukemia
M14 melanoma = system: M14 melanoma
MDA-MB-435 = system: MDA-MB-435
SF-295 CNS = system: SF-295 CNS
MCF7 breast = system: MCF7 breast
HCT-116 colon = system: HCT-116 colon
LOX IMVI melanoma = system: LOX IMVI melanoma
UO-31 renal = system: UO-31 renal
NCI-H460 lung = system: NCI-H460 lung
OVCAR-4 ovarian = system: OVCAR-4 ovarian
SK-MEL-28 melanoma = system: SK-MEL-28 melanoma
ACHN renal = system: ACHN renal
RPMI-8226 leukemia = system: RPMI-8226 leukemia
SN12C renal = system: SN12C renal
IGROV1 ovarian = system: IGROV1 ovarian
UACC-257 melanoma = system: UACC-257 melanoma
SW-620 colon = system: SW-620 colon
SK-MEL-5 melanoma = system: SK-MEL-5 melanoma
OVCAR-5 ovarian = system: OVCAR-5 ovarian
BT-549 breast = system: BT-549 breast
SF-268 CNS = system: SF-268 CNS
A549 NSCLC = system: A549 NSCLC
HS 578T breast = system: HS 578T breast
SF-539 CNS = system: SF-539 CNS
DU-145 prostate = system: DU-145 prostate
NCI-H522 lung = system: NCI-H522 lung
NCI-H23 lung = system: NCI-H23 lung
HT29 colon = system: HT29 colon
MALME-3M melanoma = system: MALME-3M melanoma
HOP-92 NSCLC = system: HOP-92 NSCLC
T-47D breast = system: T-47D breast
NCI-H226 lung = system: NCI-H226 lung

**Q.** Which GI50 (SNB-19 CNS) does the source give for `N=C(N)/N=C(\N)c1c(-c2cc(O)ccc2O)nc2sccn12` here?
**A.** > 100 µM

**Q.** What about the TGI (SNB-19 CNS) of the same compound?
**A.** > 100 µM

**Q.** What about the GI50 (A498 renal) of the same compound?
**A.** > 100 µM

**Q.** What about the TGI (A498 renal) of the same compound?
**A.** > 100 µM

**Q.** And the GI50 (HOP-62 NSCLC)?
**A.** 29.4 µM

**Q.** What about the TGI (HOP-62 NSCLC) of the same compound?
**A.** 84.6 µM

**Q.** What about the GI50 (CAKI-1 renal) of the same compound?
**A.** 20.1 µM

**Q.** And the TGI (CAKI-1 renal)?
**A.** 39.3 µM

**Q.** What about the GI50 (U251 CNS) of the same compound?
**A.** 46.1 µM

**Q.** And the TGI (U251 CNS)?
**A.** > 100 µM

**Q.** And the GI50 (UACC-62 melanoma)?
**A.** 44.6 µM

**Q.** What about the TGI (UACC-62 melanoma) of the same compound?
**A.** > 100 µM

**Q.** And the GI50 (MOLT-4 leukemia)?
**A.** 29.4 µM

**Q.** What about the TGI (MOLT-4 leukemia) of the same compound?
**A.** > 100 µM

**Q.** And the GI50 (TK-10 renal)?
**A.** 17.9 µM

**Q.** And the TGI (TK-10 renal)?
**A.** 36.4 µM

**Q.** And the GI50 (SK-MEL-2 melanoma)?
**A.** 44.9 µM

**Q.** And the TGI (SK-MEL-2 melanoma)?
**A.** > 100 µM

**Q.** What about the GI50 (EKVX NSCLC) of the same compound?
**A.** 98.6 µM

**Q.** What about the TGI (EKVX NSCLC) of the same compound?
**A.** > 100 µM

**Q.** And the GI50 (PC-3 prostate)?
**A.** 26.7 µM

**Q.** What about the TGI (PC-3 prostate) of the same compound?
**A.** > 100 µM

**Q.** What about the GI50 (NCI/ADR-RES ovarian) of the same compound?
**A.** 82.3 µM

**Q.** What about the TGI (NCI/ADR-RES ovarian) of the same compound?
**A.** > 100 µM

**Q.** And the GI50 (SK-OV-3 ovarian)?
**A.** > 100 µM

**Q.** And the TGI (SK-OV-3 ovarian)?
**A.** > 100 µM

**Q.** What about the GI50 (786-0 renal) of the same compound?
**A.** 19.9 µM

**Q.** And the TGI (786-0 renal)?
**A.** 38.9 µM

**Q.** What about the GI50 (COLO 205 colon) of the same compound?
**A.** 38.7 µM

**Q.** And the TGI (COLO 205 colon)?
**A.** > 100 µM

**Q.** What about the GI50 (OVCAR-3 ovarian) of the same compound?
**A.** 21.8 µM

**Q.** What about the TGI (OVCAR-3 ovarian) of the same compound?
**A.** 54.8 µM

**Q.** What about the GI50 (SR leukemia) of the same compound?
**A.** 22.7 µM

**Q.** And the TGI (SR leukemia)?
**A.** 87.2 µM

**Q.** And the GI50 (HCT-15 colon)?
**A.** 26 µM

**Q.** What about the TGI (HCT-15 colon) of the same compound?
**A.** 74.8 µM

**Q.** And the GI50 (KM12 colon)?
**A.** 34.8 µM

**Q.** And the TGI (KM12 colon)?
**A.** > 100 µM

**Q.** What about the GI50 (RXF 393 renal) of the same compound?
**A.** 20.6 µM

**Q.** And the TGI (RXF 393 renal)?
**A.** 41.6 µM

**Q.** And the GI50 (OVCAR-8 ovarian)?
**A.** 59.9 µM

**Q.** What about the TGI (OVCAR-8 ovarian) of the same compound?
**A.** > 100 µM

**Q.** And the GI50 (MDA-MB-231 breast)?
**A.** 18.9 µM

**Q.** What about the TGI (MDA-MB-231 breast) of the same compound?
**A.** 39.8 µM

**Q.** What about the GI50 (K-562 leukemia) of the same compound?
**A.** 33 µM

**Q.** What about the TGI (K-562 leukemia) of the same compound?
**A.** > 100 µM

**Q.** And the GI50 (CCRF-CEM leukemia)?
**A.** 10.3 µM

**Q.** And the TGI (CCRF-CEM leukemia)?
**A.** 33.7 µM

**Q.** And the GI50 (M14 melanoma)?
**A.** 19.8 µM

**Q.** And the TGI (M14 melanoma)?
**A.** 37.9 µM

**Q.** What about the GI50 (MDA-MB-435) of the same compound?
**A.** 18 µM

**Q.** And the TGI (MDA-MB-435)?
**A.** 35.3 µM

**Q.** What about the GI50 (SF-295 CNS) of the same compound?
**A.** > 100 µM

**Q.** What about the TGI (SF-295 CNS) of the same compound?
**A.** > 100 µM

**Q.** And the GI50 (MCF7 breast)?
**A.** 37.8 µM

**Q.** What about the TGI (MCF7 breast) of the same compound?
**A.** > 100 µM

**Q.** What about the GI50 (HCT-116 colon) of the same compound?
**A.** 17.3 µM

**Q.** What about the TGI (HCT-116 colon) of the same compound?
**A.** 35.9 µM

**Q.** And the GI50 (LOX IMVI melanoma)?
**A.** 22.8 µM

**Q.** And the TGI (LOX IMVI melanoma)?
**A.** 44.5 µM

**Q.** What about the GI50 (UO-31 renal) of the same compound?
**A.** 22.3 µM

**Q.** What about the TGI (UO-31 renal) of the same compound?
**A.** 47.9 µM

**Q.** And the GI50 (NCI-H460 lung)?
**A.** > 100 µM

**Q.** And the TGI (NCI-H460 lung)?
**A.** > 100 µM

**Q.** What about the GI50 (OVCAR-4 ovarian) of the same compound?
**A.** 33.9 µM

**Q.** And the TGI (OVCAR-4 ovarian)?
**A.** > 100 µM

**Q.** And the GI50 (SK-MEL-28 melanoma)?
**A.** 21.4 µM

**Q.** And the TGI (SK-MEL-28 melanoma)?
**A.** 46 µM

**Q.** What about the GI50 (ACHN renal) of the same compound?
**A.** 20.8 µM

**Q.** And the TGI (ACHN renal)?
**A.** 40.5 µM

**Q.** What about the GI50 (RPMI-8226 leukemia) of the same compound?
**A.** 21.9 µM

**Q.** And the TGI (RPMI-8226 leukemia)?
**A.** 49.5 µM

**Q.** And the GI50 (SN12C renal)?
**A.** 19.4 µM

**Q.** What about the TGI (SN12C renal) of the same compound?
**A.** 39.7 µM

**Q.** And the GI50 (IGROV1 ovarian)?
**A.** 22.5 µM

**Q.** And the TGI (IGROV1 ovarian)?
**A.** 44.1 µM

**Q.** What about the GI50 (UACC-257 melanoma) of the same compound?
**A.** 25.1 µM

**Q.** What about the TGI (UACC-257 melanoma) of the same compound?
**A.** 62.7 µM

**Q.** And the GI50 (SW-620 colon)?
**A.** 19.9 µM

**Q.** What about the TGI (SW-620 colon) of the same compound?
**A.** 39.4 µM

**Q.** And the GI50 (SK-MEL-5 melanoma)?
**A.** > 100 µM

**Q.** What about the TGI (SK-MEL-5 melanoma) of the same compound?
**A.** > 100 µM

**Q.** What about the GI50 (OVCAR-5 ovarian) of the same compound?
**A.** 18.3 µM

**Q.** And the TGI (OVCAR-5 ovarian)?
**A.** 33.1 µM

**Q.** And the GI50 (BT-549 breast)?
**A.** 30.4 µM

**Q.** And the TGI (BT-549 breast)?
**A.** 84.3 µM

**Q.** And the GI50 (SF-268 CNS)?
**A.** > 100 µM

**Q.** What about the TGI (SF-268 CNS) of the same compound?
**A.** > 100 µM

**Q.** What about the GI50 (A549 NSCLC) of the same compound?
**A.** > 100 µM

**Q.** What about the TGI (A549 NSCLC) of the same compound?
**A.** > 100 µM

**Q.** What about the GI50 (HS 578T breast) of the same compound?
**A.** > 100 µM

**Q.** And the TGI (HS 578T breast)?
**A.** > 100 µM

**Q.** And the GI50 (SF-539 CNS)?
**A.** 20.4 µM

**Q.** And the TGI (SF-539 CNS)?
**A.** 38.4 µM

**Q.** What about the GI50 (DU-145 prostate) of the same compound?
**A.** 16.8 µM

**Q.** What about the TGI (DU-145 prostate) of the same compound?
**A.** 30.5 µM

**Q.** What about the GI50 (NCI-H522 lung) of the same compound?
**A.** 32.4 µM

**Q.** And the TGI (NCI-H522 lung)?
**A.** > 100 µM

**Q.** What about the GI50 (NCI-H23 lung) of the same compound?
**A.** 19.5 µM

**Q.** And the TGI (NCI-H23 lung)?
**A.** 34.1 µM

**Q.** What about the GI50 (HT29 colon) of the same compound?
**A.** 36.5 µM

**Q.** What about the TGI (HT29 colon) of the same compound?
**A.** > 100 µM

**Q.** What about the GI50 (MALME-3M melanoma) of the same compound?
**A.** 15.9 µM

**Q.** What about the TGI (MALME-3M melanoma) of the same compound?
**A.** 35.4 µM

**Q.** And the GI50 (HOP-92 NSCLC)?
**A.** 18.3 µM

**Q.** And the TGI (HOP-92 NSCLC)?
**A.** 55.3 µM

**Q.** And the GI50 (T-47D breast)?
**A.** 20.7 µM

**Q.** What about the TGI (T-47D breast) of the same compound?
**A.** 45.1 µM

**Q.** What about the GI50 (NCI-H226 lung) of the same compound?
**A.** > 100 µM

**Q.** What about the TGI (NCI-H226 lung) of the same compound?
**A.** > 100 µM
